Measurements published in US20060167025A1, “Tricyclic amino alcohols, processes for synthesis of same and use of same as anti-inflammatory drugs” (priority 2004, published 2006).

Experiments:
[1] = molecular target: T1, glucocorticoid receptor (GR) (Homo sapiens, UniProt P04150); assay: Binding to recombinant glucocorticoid receptor, reference [3H]-dexamethasone; conditions: cytosol preparations of Sf9 cells infected with recombinant baculoviruses coding for GR; [3H]-dexamethasone reference
T1 construct: made in house; host or cells: Sf9 cells infected with recombinant baculovirus (cytosol preparation)
T1 sequence (P04150 1-777): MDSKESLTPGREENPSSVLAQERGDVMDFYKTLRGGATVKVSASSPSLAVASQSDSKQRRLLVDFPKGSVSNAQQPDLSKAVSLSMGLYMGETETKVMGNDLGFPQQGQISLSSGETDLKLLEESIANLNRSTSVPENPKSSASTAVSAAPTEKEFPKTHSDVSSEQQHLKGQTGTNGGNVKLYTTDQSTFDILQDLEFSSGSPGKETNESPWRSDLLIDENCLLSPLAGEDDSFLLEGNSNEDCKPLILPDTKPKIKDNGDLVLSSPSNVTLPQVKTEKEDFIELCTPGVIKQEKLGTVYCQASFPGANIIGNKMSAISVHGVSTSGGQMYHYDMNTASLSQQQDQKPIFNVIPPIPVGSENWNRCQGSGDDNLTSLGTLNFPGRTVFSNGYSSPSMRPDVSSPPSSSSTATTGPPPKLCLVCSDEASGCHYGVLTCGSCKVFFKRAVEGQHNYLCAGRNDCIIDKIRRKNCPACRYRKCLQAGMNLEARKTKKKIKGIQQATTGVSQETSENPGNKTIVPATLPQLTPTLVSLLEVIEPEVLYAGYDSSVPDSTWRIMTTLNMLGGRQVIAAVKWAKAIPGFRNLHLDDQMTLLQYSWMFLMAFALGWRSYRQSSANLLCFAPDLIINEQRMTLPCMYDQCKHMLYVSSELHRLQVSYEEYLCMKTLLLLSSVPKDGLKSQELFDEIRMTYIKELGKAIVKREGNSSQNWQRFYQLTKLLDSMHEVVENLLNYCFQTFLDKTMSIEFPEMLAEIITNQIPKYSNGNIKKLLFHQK
Method: (§1) The binding of substances to the glucocorticoid receptor (GR) and other steroid hormone receptors (mineral corticoid receptor (MR), progesterone receptor (PR) and androgen receptor (AR)) is tested with the help of recombinant receptors. Cytosol preparations of Sf9 cells infected with recombinant baculoviruses that code for GR are used for binding tests. In comparison with the reference substance [^3H]-dexamethasone, these substances have a high affinity for GR. An IC50 (GR)=20 nM and IC50 (PR)>1 μM have been obtained for the compound from Example 2.

[2] = tested on: secretion of cytokine IL-8 triggered by lipopolysaccharide (LPS) in the human monocyte cell line THP-1; assay: Inhibition of LPS-triggered IL-8 secretion in THP-1 cells (ELISA); assay type: cell-based
Method: The inventive compounds of general formula (I) inhibit the secretion of cytokine IL-8 triggered by lipopolysaccharide (LPS) in the human monocyte cell line THP-1. The concentration of cytokines was determined in the supernatant using commercially available ELISA kits.

[3] = molecular target: T2, progesterone receptor (PR) (Homo sapiens, UniProt P06401); assay: Binding to recombinant progesterone receptor
T2 sequence (P06401 1-933): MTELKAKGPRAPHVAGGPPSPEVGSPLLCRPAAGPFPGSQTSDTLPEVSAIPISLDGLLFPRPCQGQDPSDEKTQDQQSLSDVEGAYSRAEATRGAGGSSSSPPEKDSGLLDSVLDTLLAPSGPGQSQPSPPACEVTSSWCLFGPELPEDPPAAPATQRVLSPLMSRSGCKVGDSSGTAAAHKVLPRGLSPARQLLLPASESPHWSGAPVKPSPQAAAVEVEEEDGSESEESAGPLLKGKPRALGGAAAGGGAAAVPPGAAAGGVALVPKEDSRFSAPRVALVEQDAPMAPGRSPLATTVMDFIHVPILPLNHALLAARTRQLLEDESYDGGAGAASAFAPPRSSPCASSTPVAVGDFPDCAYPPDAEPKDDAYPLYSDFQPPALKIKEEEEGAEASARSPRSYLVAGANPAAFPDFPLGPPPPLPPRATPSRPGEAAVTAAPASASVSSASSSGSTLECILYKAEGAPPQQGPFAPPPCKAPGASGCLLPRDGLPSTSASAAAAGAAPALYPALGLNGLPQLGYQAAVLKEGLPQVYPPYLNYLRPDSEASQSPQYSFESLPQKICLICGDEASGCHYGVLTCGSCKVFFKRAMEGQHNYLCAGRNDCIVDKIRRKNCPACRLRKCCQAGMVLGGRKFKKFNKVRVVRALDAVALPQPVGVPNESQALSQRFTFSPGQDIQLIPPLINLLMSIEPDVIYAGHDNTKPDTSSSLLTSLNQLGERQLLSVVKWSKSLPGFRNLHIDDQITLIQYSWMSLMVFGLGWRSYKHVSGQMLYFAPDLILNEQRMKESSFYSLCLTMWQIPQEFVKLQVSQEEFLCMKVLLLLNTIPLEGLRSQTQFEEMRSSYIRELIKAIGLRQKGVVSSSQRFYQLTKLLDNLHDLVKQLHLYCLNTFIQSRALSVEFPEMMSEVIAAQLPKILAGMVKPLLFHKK
Method: as §1

IC50 [1]: 20 nM
IC50 ([2]; Homo sapiens, LPS-stimulated THP-1, IL-8 in supernatant by ELISA, read-out: IC50 (IL8)): 37 nM
IC50 [3]: > 1000 nM
SMILES: Cc1ccc2c(NC3c4ccc(F)c5c4C(CCO5)CC3(O)C(F)(F)F)cccc2n1 (mixture of isomers) [Example 2, 9-Fluoro-6-[(2-methylquinolin-5-yl)amino]-5-(trifluoromethyl)-2,3,3a,4,5,6-hexahydrobenzo[de]chromen-5-ol]
efficiency with respect to [3H]-dexamethasone as the standard ([2]; IL-8 inhibition in LPS-stimulated THP-1): 70%
